Molecules are shown by their SMILES.

This test relates to Proteasome. As to the kind of experiment: Concentration required for reversal inhibition of 20S-proteasome. It is filed as subcellular.
One may read the IC50 as the concentration needed to halve the response being measured. In the case of `CC[C@H](NC(=O)[C@H](CC1CCCCC1)N1CC[C@](NC(=O)OCc2ccccc2)(C(C)C)C1=O)B(O)O`, the IC50 stood at 30 nM.

As for `Cc1cccc(S(=O)(=O)N[C@]2(C(C)C)CCN([C@@H](CC3CCCCC3)C(=O)N[C@@H](CC(C)C)B(O)O)C2=O)c1`, the IC50 was 8 nM.

As for `CC[C@H](NC(=O)[C@H](C)N1CC[C@](NC(=O)OCc2ccccc2)(C(C)C)C1=O)B(O)O`, the IC50 was 1000 nM.

Take `Cc1cccc(S(=O)(=O)N[C@]2(C(C)C)CCN([C@@H](CC3CCCCC3)C(=O)N[C@H](B(O)O)C(C)C)C2=O)c1`: the IC50 turned out to be 28 nM.

In the case of `CC[C@H](NC(=O)[C@H](Cc1ccccc1)N1CC[C@](NC(=O)OCc2ccccc2)(C(C)C)C1=O)B(O)O`, the IC50 was determined as 30 nM.

For `CC[C@H](NC(=O)[C@H](CC1CCCCC1)N1CC[C@](NS(=O)(=O)c2cccc(C)c2)(C(C)C)C1=O)B(O)O`, the IC50 amounted to 30 nM.

For the origin of these results see ChEMBL document CHEMBL1137836, “Identification of a potent and rapidly reversible inhibitor of the 20S-proteasome” (Bioorg Med Chem Lett, 2004).
